Data: patent US12509460B2 (Skyhawk Therapeutics, Inc., priority 2019, dated 2025)
Read-outs that look alike come from different tables or passages of the source.

Legend:
[1] = test system: mHTT protein in GM04724 (CAG 70/20) Huntington's disease patient lymphoblast cells; assay: mHTT protein assay, 2B7-MW1 assay via Mesoscale Discovery (MSD); format: cell-based, human
Outline: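 Signal from the 2B7-MW1 antibody pair on MSD, rising with polyQ length and smaller HTT fragments, measured mHTT after 48 h compound exposure (0.6 nM–10 μM) in GM04724 cells. A parallel replicate plate gave CellTiter Glo viability.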

MDR1 (P-gp) = assay: in vitro; settings: dog, MDCK-MDR1, pH 7.4
MDR1 = assay: in vitro; settings: dog, MDCK-MDR1, pH 7.4
[2] = test system: SMN protein in spinal muscular atrophy (SMA) patient fibroblasts (GM03813, Coriell); assay: SMN protein assay, Mesoscale Discovery (MSD); format: cell-based, human; settings: for EC50: read-out: SMN2 protein EC50
Outline: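 Absolute SMN levels were quantified by MSD against an SMN protein standard curve (1 μg/ml to 19.5 pg/ml) run on each plate. Samples were lysates of GM03813 patient fibroblasts (7000 cells/well) treated 48 hours with compound doses from 2.5 μM down to 0.6 nM.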

[3] = test system: MDR1-MDCK cell monolayers; settings: dog, MDCK-MDR1, 120 min, 5 μM, pH 7.4
[4] = GM04724 Huntington's disease patient lymphoblasts
[5] = SMA patient fibroblasts GM03813, 48 hours, MSD
[6] = GM04724 (CAG 70/20) Huntington's disease patient lymphoblasts
[7] = SMA patient fibroblasts (GM03813), 48 hours

| Structure (SMILES) | mHTT protein EC50 [1, 4] | Papp A→B at 120 min, 5 μM (MDR1 (P-gp)) [×10⁻⁶ cm/s] | Papp B→A at 120 min, 5 μM (MDR1 (P-gp)) [×10⁻⁶ cm/s] | efflux ratio at 120 min, 5 μM (MDR1) | SMN2 protein EC50 [2, 5] | MDCK-MDR1: % Recov A-B [3] [%] | MDCK-MDR1: % Recov B-A [3] [%] | EC50 [1, 4] [nM] | EC50 [2, 5] [nM] | mHTT protein EC50 [1, 6] | SMN2 protein EC50 [2, 7] | EC50 [2, 7] [nM] |
| --- | --- | --- | --- | --- | --- | --- | --- | --- | --- | --- | --- | --- |
| CN1[C@@H]2CC[C@H]1[C@H](F)[C@H](N(c1ccc(-c3cc4oc(C(=O)N5CCC5)cc4cc3O)nn1)C1CC1)C2 (single isomer, unassigned) [Compound 92A] | E (501 ≤ E ≤ 10.000) | 1.23 | 57.8 | 47 | E (501 ≤ E ≤ 10.000) | 93 | 88 | – | – | – | – | – |
| CN1[C@H]2CC[C@@H]1[C@@H](F)[C@@H](N(c1ccc(-c3cc4oc(C(=O)N5CCC5)cc4cc3O)nn1)C1CC1)C2 (single isomer, unassigned) [Compound 92B] | – | 1.16 | 52.3 | 45 | – | 94 | 105 | 101 to 500 | 101 to 500 | – | – | – |
| CN(c1ccc(-c2cc3occc(=O)c3cc2O)nn1)[C@@H]1C[C@H]2CC[C@@H]([C@@H]1F)N2C (single isomer, unassigned) [Compound 94A] | E (501 ≤ E ≤ 10.000) | 4.99 | 33.9 | 7 | – | 68 | 71 | – | 101 to 500 | – | – | – |
| CN(c1ccc(-c2cc3occc(=O)c3cc2O)nn1)[C@H]1C[C@@H]2CC[C@H]([C@H]1F)N2C (single isomer, unassigned) [Compound 94B] | E (501 ≤ E ≤ 10.000) | 4.47 | 41.2 | 9 | – | 73 | 83 | – | 101 to 500 | – | – | – |
| CN(c1ccc(-c2cn3c(=O)ccnc3cc2O)nn1)[C@@H]1C[C@H]2CC[C@@H]([C@@H]1F)N2C (single isomer, unassigned) [Compound 95A] | E (501 ≤ E ≤ 10.000) | 0.15 | 8.79 | 59 | E (501 ≤ E ≤ 10.000) | 85 | 115 | – | – | – | – | – |
| CNC(=O)c1cc(O)c(-c2ccc(N(C)[C@@H]3C[C@H]4CC[C@@H]([C@@H]3F)N4C)nn2)cc1F (single isomer, unassigned) [Compound 96A] | E (501 ≤ E ≤ 10.000) | 2.97 | 53.7 | 18 | E (501 ≤ E ≤ 10.000) | 100 | 114 | – | – | – | – | – |
| CNC(=O)c1cc(O)c(-c2ccc(N(C)[C@H]3C[C@@H]4CC[C@H]([C@H]3F)N4C)nn2)cc1F (single isomer, unassigned) [Compound 96B] | E (501 ≤ E ≤ 10.000) | 2.72 | 55.2 | 20 | E (501 ≤ E ≤ 10.000) | 92 | 98 | – | – | – | – | – |
| CN(c1ccc(-c2cc3ccn(C)c(=O)c3cc2O)nn1)[C@@H]1C[C@H]2CC[C@@H]([C@@H]1F)N2C (single isomer, unassigned) [Compound 97A] | E (501 ≤ E ≤ 10.000) | 1.96 | 40.3 | 20 | – | 73 | 74 | – | 101 to 500 | – | – | – |
| CN(C)C(=O)c1cc(O)c(-c2ccc(N(C)[C@@H]3C[C@H]4CC[C@@H]([C@@H]3F)N4C)nn2)cc1F (single isomer, unassigned) [Compound 104A] | – | 1.23 | 43.1 | 35 | – | 106 | 105 | – | – | E (501 ≤ E ≤ 10.000) | E (501 ≤ E ≤ 10.000) | – |
| CN(C)C(=O)c1cc(O)c(-c2ccc(N(C)[C@H]3C[C@@H]4CC[C@H]([C@H]3F)N4C)nn2)cc1F (single isomer, unassigned) [Compound 104B] | – | 0.89 | 50.2 | 56 | – | 99 | 105 | – | – | E (501 ≤ E ≤ 10.000) | E (501 ≤ E ≤ 10.000) | – |
| CN(C)C(=O)c1cc2cc(O)c(-c3ccc(N(C)[C@@H]4C[C@H]5CC[C@@H]([C@@H]4F)N5C)nn3)cc2o1 (single isomer, unassigned) [Compound 106A] | – | 1.87 | 63.1 | 34 | – | 95 | 92 | – | – | E (501 ≤ E ≤ 10.000) | E (501 ≤ E ≤ 10.000) | – |
| CN(C)C(=O)c1cc2cc(O)c(-c3ccc(N(C)[C@H]4C[C@@H]5CC[C@H]([C@H]4F)N5C)nn3)cc2o1 (single isomer, unassigned) [Compound 106B] | – | 1.61 | 55.7 | 35 | – | 92 | 99 | – | – | E (501 ≤ E ≤ 10.000) | – | 101 to 500 |
| CN(c1ccc(-c2cc3ncn(CC(F)(F)F)c(=O)c3cc2O)nn1)[C@@H]1C[C@H]2CC[C@@H]([C@@H]1F)N2C (single isomer, unassigned) [Compound 108A] | – | 1.51 | 73.7 | 49 | – | 82 | 91 | – | – | E (501 ≤ E ≤ 10.000) | E (501 ≤ E ≤ 10.000) | – |
| CN(c1ccc(-c2cc3ncn(CC(F)(F)F)c(=O)c3cc2O)nn1)[C@H]1C[C@@H]2CC[C@H]([C@H]1F)N2C (single isomer, unassigned) [Compound 108B] | – | 0.98 | 59.5 | 61 | – | 102 | 101 | – | – | E (501 ≤ E ≤ 10.000) | E (501 ≤ E ≤ 10.000) | – |
| CN(c1ccc(-c2cc3ncn(CC(F)(F)F)c(=O)c3cc2O)nn1)[C@@H]1C[C@H]2CCC[C@@H]([C@@H]1F)N2C (single isomer, unassigned) [Compound 109A] | – | 2.72 | 63.3 | 23 | – | 76 | 81 | – | – | E (501 ≤ E ≤ 10.000) | E (501 ≤ E ≤ 10.000) | – |
| CN(c1ccc(-c2cc3ncn(CC(F)(F)F)c(=O)c3cc2O)nn1)[C@H]1C[C@@H]2CCC[C@H]([C@H]1F)N2C (single isomer, unassigned) [Compound 109B] | – | 2.39 | 63.3 | 26 | – | 74 | 87 | – | – | E (501 ≤ E ≤ 10.000) | E (501 ≤ E ≤ 10.000) | – |
| CN(c1ccc(-c2cc3ncn(CC(F)(F)F)c(=O)c3cc2O)nn1)[C@@H]1C[C@H]2CC(F)(F)[C@@H](C1)N2C (single isomer, unassigned) [Compound 110A] | – | 11 | 44.4 | 4 | – | 80 | 92 | – | – | E (501 ≤ E ≤ 10.000) | E (501 ≤ E ≤ 10.000) | – |
